The test system of data set [1] is Hepa 1c1c7 cells. Nature of the data set: Hepa 1c1c7 cell viability (cytotoxicity). Type of data set: cell-based, murine. Particulars: Mus musculus, Hepa-1c1c7, read-out: IC50, concentration for 50% inhibition of cell viability.
Data set [2] deals with QR ARE-CAT construct, HepG2 cells. Put plainly: CAT expression in HepG2 cells transfected with QR ARE-CAT. Particulars: 10 μM, 48 h; p<0.0001. Type of data set: cell-based, human cells; rat QR gene. As to the method: (§1) Transcient Transfection Gene Expression Assay. Cultured HepG2 human hepatoma cells were transfected with three plasmid constructs (PDTD-1697CAT, XRE-CAT, ARE-CAT) containing various portions of the 5'-region of the QR gene fused to the CAT gene using the calcium phosphate precipitation method (J. Sambrook et al., Molecular cloning: A Laboratory Handbook, Ed. Chris Nolan, CHS Laboratory Press, 1989). After 4 hours of transfection, the cells were treated with 10% glycerol for 3 minutes and rinsed with PBS and switched to MEM, containing 100 units/ml penicillin G sodium, 100 units/ml streptomycin sulfate, nonessential amino acids, and 1 mM sodium pyruvate (Life Technologies Inc.) supplemented with 10% fetal bovine serum for 12-16 hours recovery. Then, test agents were added to the cells. After 48 hours of treatment with the test agents, cells were harvested with lysis buffer (Boehringer Mannheim Biochemical) and CAT protein expressions were assessed using a CAT ELISA kit (Boehringer Mannheim Biochemical). CAT enzyme expression was normalized for the protein content of each sample. All data were expressed as mean +/- SD. Means were compared using Student's t test with n=4.
(§2) This was further investigated in transient transfection experiments wherein human hepatoma cells were transfected with DNA constructs containing various portions of the 5' upstream promoter region of the QR gene linked to the CAT reporter gene by using the calcium phosphate precipitation method. Construct pDTD-1097CAT contains elements of the rat QR gene connected to the CAT construct gene. […]
(§3) In particular, FIG. 1 illustrates quantitation of CAT expression in HepG2 cells transfected with QR-CAT constructs. […] CAT expression (ng CAT/mg protein) was determined using a CAT ELISA, and the ratio of CAT expression between treated and control cells was calculated (ratio=treated/control).

The test system of the next data set is GST Ya (α class). Nature of the data set: Western blot of GST Ya (α-type) expression in H4IIE cells. Format: cell-based, rat. Here is the method: (§4) Western Blot Analysis Glutathione S-transferase Expression. Cultured H4IIE rat hepatoma cells were treated with test agent with various concentrations or various time points. […] Cells were harvested using SDS lysis buffer (20 mM Tris-Cl, pH 6.8, containing 0.4% SDS (w/v), 4% glycerol, 0.24 M β-mercaptoethanol, and 0.5% bromphenol) and the lysates were boiled for 5 minutes, then stored at -20° C. An aliquot of lysate was used for protein determination using a bicichoninic acid protein assay kit with BSA as a standard. Equivalent amounts of protein were electrophoresed by SDS-PAGE on precast 12.5% Tris-glycine acrylamide gels (Novex, San Diego, Calif.), then transferred to polyvinylidene difluoride (PDVF) membranes. Nonspecific binding sites were blocked with 10% nonfat dry milk and blotting was performed with goat polyclonal antirat GSTYa (α class) IgG or antirat, GSTYb (μ class) IgG and analyzed by alkaline phosphatase-conjugated antigoat IgG secondary antibody (Oxford Biomed Research, Inc.) and quantified using an AP 20 Alkaline Phosphatase Kit detection system (Oxford Biomed Research, Inc.).
(§5) Induction of Expression of Glutathione S-transferase Ya (α-type) and Yb (μ-type) in Cell Cultures. […] To date, the superfamily of mammalian cytosolic GST isozymes has been defined genetically to consist of four classes; α, μ, π, and θ, which differ in tissue-specificexpression and distribution, as well as substrate specificity. […] Cultured H4IIE cells were treated either with 10 μM of 4'-BF (FIG. 7B) or sulforaphane for 0, 2, 4, 8, 16, 24, and 48 hours for a time-dependent study, or with 0.16, 0.8, 4, 10, 20, and 50 μM of 4'-BF (FIG. 7A) or sulforaphane for 24 hr for a dose-dependent study (FIG. 7A). The expressions of two major detoxification isoforms of GSTs (GST Ya: α-type, and GST Yb: μ-type) mediated by 4'-BF or sulforaphane were investigated in H4EII rat hepatoma cells using Western blotting technique.
For orientation: In western blotting, separated proteins are transferred to a membrane and probed.

Data set [3] has as its system quinone reductase (QR), Hepa 1c1c7 cells. Put plainly: Quinone reductase (QR) induction in Hepa 1c1c7 cells. Format: cell-based, murine. The text has this:
This test was used because the specific activity of QR rises concomitantly with other phase II enzymes in many animal tissues in response to various chemopreventive agents. The study included natural and synthetic B-ring substituted flavones, as well as biosynthetic precursor chalcones and flavanones.
Determination of Quinone Reductase Activity in Cell Cultures. To determine the potency of inducers, Hepa 1c1c7 murine hepatoma cells as described in the Gerhauser publication were placed in 96-well plates at a density of 1×10^4 cells/ml in 200 μl of medium. After a preincubation period of 24 hr, the media were decanted and 190 μl fresh media were added to each well. Ten (10) μl test agents dissolved in 10% DMSO (final concentration of DMSO is 0.5%) with a serial 2-fold dilutions were introduced to each well, and the plates were incubated for an additional 48 hours. Specific QR activity was determined by measuring the NADPH-dependent menadiol-mediated reduction of 3-(4, 5-dimethylthiazo-2-yl)-2,5-diphenyltetrazolium bromide to blue formazan formed per mg protein per minute. Protein was determined in an identical set of test plates by staining with crystal violet. Hepa 1c1c7 cells retain many characteristics of normal issues, particularly the capacity for carcinogen activation and metabolism. They are amenable to precise control of environmental, nutritional, and hormonal factors. […] Induction of QR activity was calculated by comparing the QR specific activity of agent-treated cells with that of solvent-treated cells, and a plot of ratio was generated. CD represents the concentration required to double QR induction. Chemopreventive index (CI) is an indexing value generated by comparing CD with IC50 (concentration for 50% inhibition of cell viability) values.
Induction of Quinone Reductase in Hepa 1c1c7 Cells. […] Modification of the B-ring of chalcones, flavanones, and flavones was hypothesized to induce torsion of the B-ring, and, therefor, simulate out-of-plane distortions characteristic of polycyclic aromatic hydrocarbons, such as DMBA. Induction of QR activity was calculated by comparing the QR specific activity of agent-treated cells with the QR specific activity of solvent-treated cells, and a plot of ratios was generated. CD represents the concentration required for a double fold of induction. CI (Chemopreventive Index) is a value obtained by comparing CD with IC50 (concentration for 50% inhibition of cell viability in […]).

The next data set relates to GST Yb (μ class). Nature of the data set: Western blot of GST Yb (μ-type) expression in H4IIE cells. Type of data set: cell-based, rat. As to the method: as §4, §5
The test system of the next data set is H4IIE rat hepatoma cells. Put plainly: Toxicity in H4IIE rat hepatoma cells. Type of data set: cell-based.
Data set [4] has as its system QR XRE-CAT construct, HepG2 cells. Nature of the data set: CAT expression in HepG2 cells transfected with QR XRE-CAT. Format: cell-based, human cells; rat QR gene. As to conditions: 10 μM, 48 h. Here is the method: as §1, §2, §3
Data set [5] concerns quinone reductase (QR), Hepa 1c1c7 cells. Particulars: reported comparator value; cited from earlier work.
Data set [6] deals with pDTD-1097CAT construct (QR gene 5'-region), HepG2 cells. Put plainly: CAT expression in HepG2 cells transfected with pDTD-1097CAT. As to conditions: 10 μM, 48 h; p<0.0001. Format: cell-based, human cells; rat QR gene. Here is the method: as §1, with “CAT enzyme expression was normalized for the protein content of each sample.” left out, “Means were compared using Student's t test with n=4.” left out
as §3

In data set [7] the test system is Hepa 1c1c7 cells. Particulars: comparator value; read-out: IC50 (toxicity), comparison value; cited from earlier work.

“Also recorded” adds a separate entry of the source. Where two headings read alike, the source gives them in different places.

On to `C[S+]([O-])CCCCN=C=S` (stereo not drawn) [Sulforaphane, sulforaphane, reference compound], for which the IC50 with Hepa 1c1c7 cells [1] stood at 11 µM. For the same compound, in data set [2], the “CAT expression, QR ARE-CAT” value is “significantly (p<0.0001) induced; also recorded: selectively interacted with the ARE”. The “maximum induction time, GST Ya” value in the data set with GST Ya (α class) (10 μM, 0-48 h) is 16 to 24 h. For the same compound, the “maximum induction concentration, GST Ya” value in the data set with GST Ya (α class) (0.16-50 μM, 24 h) lay in the range of 4 to 10 µM. The “GST Ya (α) induction” value with GST Ya (α class) (H4IIE cells) is recorded as “Time, dose-dependent induction”. The “CI, chemoprevention index (IC50/CD)” value in data set [3] (IC50/CD, 2880 min) was 26. Further, the EC (2-fold) in data set [3] (Mus musculus, Hepa-1c1c7, 48 h, Hepa 1c1c7 cells, 48 h, read-out: CD, concentration to double the specific activity of QR) is 0.43 µM. Also, the “maximum induction time, GST Yb” value in the data set on GST Yb (μ class) (10 μM, 0-48 h) was in the range of 16 to 24 h. In addition, the “maximum induction concentration, GST Yb” value in the data set on GST Yb (μ class) (0.16-50 μM, 24 h) lay within 4 to 10 µM. In the data set with GST Yb (μ class) (H4IIE cells), the “GST Yb (μ) induction” value was “Time, dose-dependent induction”. Besides, the “toxicity in H4IIE cells” value in the data set with H4IIE rat hepatoma cells was “a declined induction for sulforaphane was observed at a concentration higher than 10 μM due to the toxic effects”. The “CAT expression, QR XRE-CAT” value in data set [4] is listed as “not observed”. Moreover, the “CD, comparison value” in data set [5] was 0.23 µM. The “CAT expression, pDTD-1097CAT” value in [6] is recorded as “significantly (p<0.0001) induced”.
In the case of `O=c1cc(-c2ccccc2)oc2ccc3ccccc3c12` [β-naphthoflavone], the IC50 in the data set with Hepa 1c1c7 cells [7] was 8 µM. The “CAT expression, QR ARE-CAT” value in data set [2] is reported as “significantly (P<0.0001, students t test with n=4) induced”. The “CAT expression, QR XRE-CAT” value in data set [4] was “significantly (P<0.0001, students t test with n=4) induced”. In [5], the “CD, comparison value” is 0.02 to 0.04 µM.

The record behind these values is patent US6046231A, “Use of 4'-bromoflavone in a cancer chemopreventative composition and method” (The Board of Trustees of the University of Illinois, priority 1999, dated 2000).
